Reference: patent US20250177346A1 (priority 2022, published 2025)

How the values were obtained:
C57BL/6 mouse model [1] = conditions: in vivo
[2] = tested on: human hair dermal papilla cells; format: cell-based
[3] = tested on: hair dermal papilla cells (HDPCs) derived from human hair follicles; format: cell-based
[4] = tested on: hair dermal papilla cells derived from human hair follicles; format: cell-based
[5] = tested on: outer root sheath cells derived from human hair follicles; format: cell-based
[6] = tested on: outer root sheath cells derived from human hair follicles; format: cell-based; remark: listed apart in the source
human hair follicles [7] = format: cell-based
[8] = tested on: outer root sheath cells (ORSs) derived from human hair follicles; format: cell-based
human hair follicles [9] = format: cell-based; remark: listed apart in the source
C57BL/6 mouse model [10] = conditions: in vivo; remark: listed apart in the source

Nc1cc(N2CCCCC2)nc(N)[n+]1[O-] [minoxidil, 6-piperidin-1-ylpyrimidine-2,4-diamine 3-oxide]
hair growth / area of hair growth in the anagen phase (C57BL/6 mouse model [1]): hair growth was shown

O=C(NCc1ccc2c(c1)OCO2)c1c(Cl)cccc1Cl [Alda-1, N-(1,3-benzodioxol-5-ylmethyl)-2,6-dichlorobenzamide]
protein level of basic fibroblast growth factor (bFGF) [2]: increased | protein level of insulin-like growth factor 1 (IGF-1) [2]: increased | protein level of keratinocyte growth factor (FGF-7) [2]: increased | protein level of platelet-derived growth factor (PDF) [2]: increased | hair growth / area of hair growth in the anagen phase (C57BL/6 mouse model [1]): hair growth was shown | cell viability of hair dermal papilla cells [3]: significantly increased | proliferation of hair dermal papilla cells compared with minoxidil [3]: equivalent to or greater than those of minoxidil | fluorescence level indicating DCFDA (oxidative stress) [4]: significantly reduced | oxidative stress in outer root sheath cells (DCFDA level, flow cytometry) [5]: significantly reduced | ATP production of mitochondria, increase [6]: ~10 fold | basal respiration rate [6]: remarkably increased | maximal respiration rate [6]: remarkably increased | oxygen consumption efficiency of outer root sheath cells [6]: increased | Ki-67 positive cell effect compared with minoxidil (human hair follicles [7]): even better than that of minoxidil | level of Ki-67 positive cells in hair follicles (human hair follicles [7]): increased | cell viability of outer root sheath cells [8]: significantly increased | proliferation of outer root sheath cells compared with minoxidil [8]: equivalent to or greater than those of minoxidil | elongation of hair in human hair follicles (human hair follicles [9]): promoted the elongation of hair | growth of hair in hair follicles compared with minoxidil (human hair follicles [9]): higher levels compared to minoxidil | anagen induction score (C57BL/6 mouse model [10]): increased compared to the control | formation of hair follicles (hematoxylin and eosin staining) (C57BL/6 mouse model [10]): promoted | percentage of areas where hair in the anagen phase grew (C57BL/6 mouse model [10]): significantly increased | skin thickness (C57BL/6 mouse model [10]): increased compared to the control
